{"source": "patent US7989495B2", "about": "“Compositions and methods for inhibiting NF-κB mediated tumorigenicity and adhesion dependent survival of cancer cells” (University of Utah Research Foundation, priority 2002, dated 2011)", "format_in_all_cases": "cell-based", "key": {"[1]": {"tested_on": "cleaved PARP in HT-29 cells", "test": "Immunoblot for cleaved PARP", "conditions": "20 μM, 8 h", "method": "The cells were washed twice in ice cold PBS and then lysed in 4° C. lysis buffer (50 mM HEPES, 150 mM NaCl, 1.5 mM MgCl2, 1 mM EGTA, 100 mM NaF, 10 mM Na2PO4, 1 mM Na3VO4, 10% glycerol, 1% Triton X-100, and 1 μg/ml each of aprotinin, leupeptin, chymostatin, pepstatin) and clarified at 12,000 rpm at 4° C. for 15 minutes. The lysates were normalized for total protein concentration. Aliquots of the lysates were then mixed 1:1 in sample buffer (125 mM Tris-HCl (pH 6.8), 20% glycerol. 4% sodium dodecyl sulfate, 2% beta-mercaptoethanol, 10 μg/ml bromophenol blue) and boiled for 3 minutes. The samples were loaded onto SDS-PAGE gels (7.5 or 10% acrylamide). […]\n(§1) For immunodetection, the blocked blots were probed with primary antibody for 2 hours at 4° C. on a rocker. […] Alkaline phosphatase was detected by a colorimetric reaction using a BCIP (5-Bromo-4-Chloro-3-Indolyl phosphate)/NBT (Nitroblue tetrazolium) kit (Zymed).\nIt was confirmed in HT-29 cells that were treated with increasing concentrations of BAY 11-7085 for 24 h. After separating the HT-29 cells that remained adherent and those that became nonadherent after BAY 11-7085 treatment, the percentage of apoptotic cells was determined for each group. […]"}, "adherent HT-29 cells": {"tested_on": "adherent HT-29 cells", "test": "Apoptosis assay (annexin V-FITC / propidium iodide flow cytometry), adherent cells", "method": "The data points represent the average percent of annexin V-positive, propidium iodide-negative cells (of the total cells counted) from triplicate experiments. The error bars represent the standard error of the means. […] The results shown are a graphic representation of individual flow cytometry results expressed as the percentage of cells that were annexin V-positive of those that excluded propidium iodide. […] An immunoblot of the lysates for cleaved PARP was performed. Each lane represents equal total protein concentrations. […] The cells were allowed to adhere to plastic dishes for 1 hour after which they were washed gently in PBS and stained with crystal violet. The crystal violet stained cells were solubilized in deoxycholate and the absorbance detected in a spectrophotometer at 590 nm. The adherent cells were expressed as a fraction of the controls Each data point represents the average of triplicate experiments and the error bars the standard errors of the means.\n(§2) Single cell suspensions were plated at 100,000 cells per well in 24-well plates in media containing DMSO, BAY 11-7082, BAY 11-7085, or MG-132 for 8-24 hours in an incubator. Alternatively, DMSO, BAY 11-7082, BAY 11-7085, or MG-132 were added to cells that were confluent and adherent for several days. The nonadherent cells were aspirated off with the media and spun for 3 minutes at 2,000 rpm in 15 ml polypropylene tubes. The adherent cells were washed twice with PBS, dispersed in trypsin, and spun down for 3 minutes at 2,000 rpm in 15 ml polypropylene tubes. The nonadherent and adherent cells were resuspended in 1× binding buffer (10 mM HEPES/NaOH, pH 7.4, 140 mM NaCl, and 2.5 mM CaCl2) to a final concentration of 10^6 cells/ml. 100 μl of the cell solution were transferred to a 5 ml culture tube and incubated with 5 μl of annexin V-FITC-conjugated monoclonal antibody (Pharmingen) and 10 μl of propidium iodide (from a 50 μg/ml stock solution made in PBS) in the dark at 25° C. for 15 minutes. 400 μl of binding buffer was added to each tube and the cells were analyzed by flow cytometry immediately. The percent of apoptosis was determined as the percent of annexin V-positive, propidium iodide-negative cells of the total cells counted."}, "[2]": {"tested_on": "transiently suspended HT-29 cells", "test": "Apoptosis (annexin V) of transiently suspended cells allowed to readhere", "conditions": "HT-29; various concentrations; 4 h; compared with BAY 11-7085", "method": "HT-29 cells that were either transiently suspended with trypsin-EDTA or adherent for three days, were treated at time zero with DMSO or 10-100 μM BAY 11-7085. The percent of apoptotic cells was determined using the annexin V flow cytometry assay and graphed versus the dose of BAY 11-7085. […] The cells were fixed and immunostained with an NF-κB p65 subunit monoclonal antibody.\nThe transiently suspended cells were lysed and allowed to bind to DNA oligonucleotides, containing the NF-κB consensus binding site, that were immobilized to 96-well plates. NF-κB protein bound to the oligonucleotides was detected by an antibody to the p65 subunit that only recognized p65 that is bound to DNA. The positive control was HeLa cells that were stimulated with TNFα A control was performed using excess free NF-κB oligonucleotides (Competitor). […] NF-κB binding activity was determined by the TransAM assay as in FIG. 5A. […] The data shown represent typical results of three separate experiments. […] An immunoblot for COX-2 was performed.\nThe percentage of apoptotic cells was determined using the annexin V assay. The data points represent the averages of three experiments; bars, ±SE. E. DLD-1 and F. HT-29 cells were transduced with an adenovirus containing the IκB super-repressor construct. After 3 days, the cells were transiently suspended and allowed to readhere in the presence of subapoptotic concentrations of BAY 11-7085 or DMSO (vehicle) for 8 h. The data are expressed as fractions of cells surviving compared with the controls (no adenovirus) and were quantitatively determined by staining the remaining adherent cells with crystal violet.\nas §2\nVarious concentrations of BAY 11-7085 were added to HT-29 cells that were transiently suspended in trypsin-PBS for approximately 15 minutes before replating. The transiently suspended cells were quickly allowed to readhere in order to prevent anoikis. Alternatively, BAY 11-7085 was added to adherent HT-29 cell monolayers."}, "[3]": {"tested_on": "cleaved PARP in HCT-116 cells", "test": "Immunoblot for cleaved PARP", "conditions": "20 μM, 24 hours", "method": "The data points represent the average percent of annexin V-positive, propidium iodide-negative cells (of the total cells counted) from triplicate experiments. The error bars represent the standard error of the means. […] The results shown are a graphic representation of individual flow cytometry results expressed as the percentage of cells that were annexin V-positive of those that excluded propidium iodide. […] An immunoblot of the lysates for cleaved PARP was performed. Each lane represents equal total protein concentrations. […] The cells were allowed to adhere to plastic dishes for 1 hour after which they were washed gently in PBS and stained with crystal violet. The crystal violet stained cells were solubilized in deoxycholate and the absorbance detected in a spectrophotometer at 590 nm. The adherent cells were expressed as a fraction of the controls Each data point represents the average of triplicate experiments and the error bars the standard errors of the means. […]\nas §1"}, "[4]": {"tested_on": "HT-29 colon cancer cell line", "test": "Cell proliferation assay (crystal violet, 590 nm)", "conditions": "10 and 50 μg/ml, after several days of treatment", "method": "(§3) DLD-1, HCT-116, and HT-29 colon cancer cell lines were obtained from the ATCC collection and were cultured in Dulbecco's Modification of Eagle's Medium supplemented with 10% fetal bovine serum, glutamine, penicillin, and streptomycin. 293 cells stably transfected with COX-2 (293-COX-2) under the control of a ponasterone sensitive promoter were cultured in Dulbecco's Modification of Eagle's Medium supplemented with 10% fetal bovine serum, 400 μg/ml of zeocin, 400 μg/ml of G418, glutamine, penicillin, and streptomycin. For induction of COX-2 protein expression, 293-COX-2 cells were cultured for 48 hours in media supplemented with 1 μg/ml of ponasterone. All cells were cultured at 37° C. in a humidified incubator with a 5% CO2 atmosphere.\n(§4) For the cell proliferation assay, cells were dispersed and plated at 40,000 cells/well in 96-well dishes. At various days in culture, the cells were gently washed twice with 100 μl/well of ice-cold blocking buffer (1% radioimmunoassay grade BSA in PBS) and twice with 100 μl/well of ice-cold PBS. The cells were fixed for 10 min in 100% ice-cold methanol (100 μl/well), then allowed to air-dry. The cells were stained with 100μl/well of 0.1% crystal violet in H2O for 10 minutes, then washed gently four times with dd H20 and four times with PBS. The plates were then air-dried completely. The stained cells were then solubilized in 1% sodium deoxycholate, and the plates read at 590 nm in a spectrophotometer. The absorption at 590 nm is proportional to the number of attached cells."}, "[5]": {"tested_on": "HCT-116 colon cancer cell line", "test": "Cell proliferation assay (crystal violet, 590 nm)", "conditions": "10 and 50 μg/ml, after several days of treatment", "method": "as §3, §4"}, "[6]": {"tested_on": "DLD-1 colon cancer cell line", "test": "Cell proliferation assay (crystal violet, 590 nm)", "conditions": "10 and 50 μg/ml, after several days of treatment", "method": "as §3, §4"}}, "note": "Entries after “also recorded” stand apart in the source; their conditions may differ. Peptide text beside a SMILES is read from it. * marks the point of attachment. Cbz = O=C(OCc1ccccc1)*", "data": [{"molecule": "CC(C)C[C@@H](C=O)NC(=O)[C@H](CC(C)C)NC(=O)[C@H](CC(C)C)NC(=O)OCc1ccccc1", "note": "[MG-132, N-[(phenylmethoxy)carbonyl]-L-leucyl-N-[(1S)-1-formyl-3-methylbutyl]-L-leucinamide] (Cbz-Leu-Leu-Leu-aldehyde)", "values": [{"measurement": "cleaved PARP in cells that remained adherent", "setting": "[1]", "result": "only a small increase in cleaved PARP"}, {"measurement": "cleaved PARP in the nonadherent cells", "setting": "[1]", "result": "large increase in cleaved PARP"}, {"measurement": "level of apoptosis (annexin V-positive, propidium iodide-negative cells)", "setting": "adherent HT-29 cells; adherent HT-29, doses up to 20 μM (MG-132 20 μM), 24 hours", "result": "relatively greater for MG-132 than BAY 11-7085; also recorded: caused a greater increase in apoptosis"}, {"measurement": "induction of apoptosis during readhesion", "setting": "[2]", "result": "more potently induced apoptosis"}, {"measurement": "cleaved PARP in cells that remained adherent", "setting": "[3]", "result": "only a small increase in cleaved PARP"}, {"measurement": "cleaved PARP in the non-adherent cells", "setting": "[3]", "result": "large increase in cleaved PARP"}]}, {"molecule": "S=C(S)N1CCCC1", "note": "[PDTC, pyrrolidine dithiocarbamate]", "values": [{"measurement": "induction of apoptosis during readhesion", "setting": "[2]", "result": "caused apoptosis of HT-29 cells during readhesion"}]}, {"molecule": "cA2: antagonistic and chimeric TNFα monoclonal antibody purchased from the clinical pharmacy; inhibits TNFα binding to TNFα receptors", "values": [{"measurement": "effect of cA2 pretreatment on BAY 11-7085-induced apoptosis", "setting": "adherent HT-29 cells; HT-29, 50 μg/ml cA2 for 48 hours, then 20 μM BAY 11-7085 for 24 hours", "result": "did not diminish BAY 11-7085-induced apoptosis"}, {"measurement": "inhibition of colon cancer cell proliferation", "setting": "[4]", "result": "significant inhibition"}, {"measurement": "inhibition of colon cancer cell proliferation", "setting": "[5]", "result": "significant inhibition"}, {"measurement": "inhibition of colon cancer cell proliferation", "setting": "[6]", "result": "significant inhibition"}]}]}
